Test results from patent US4122034A, “Antimicrobial compositions” (Schering Corporation, priority 1975, dated 1978).

Key:
Enterococcus = assay: In vitro antibacterial activity, dilution in Mueller Hinton Agar (Table I); assay type: cell-based
Method: (§1) All the tests were carried out and (when necessary) scored under standard conditions. "MIC" means "minimum inhibitory concentration."
(§2) In vitro Antibacterial Activity of 2-aminoalkyl-3-phenyl-
(§3) indoles of the formula I. Dilution in Mueller Hinton Agar pH 7.4

Escherichia coli = assay: as above; assay type: cell-based
Method: as §1, §2, §3

Klebsiella = assay: as above; assay type: cell-based
Method: as §1, §2, §3

Proteus mirabilis = assay: as above; assay type: cell-based; conditions: Mueller Hinton Agar pH 7.4
Method: as §1, §2, §3

Proteus morganii = assay: as above; assay type: cell-based; conditions: Morganella morganii; strain Valz; Mueller Hinton Agar pH 7.4
Method: as §1, §2, §3

Proteus rettgeri = assay: as above; assay type: cell-based; conditions: Providencia rettgeri; 'Proteus rettgeri mirabilis' [sic]; Mueller Hinton Agar pH 7.4
Method: as §1, §2, §3

Proteus vulgaris = assay: as above; assay type: cell-based; conditions: strain Napol, Mueller Hinton Agar pH 7.4
Method: as §1, §2, §3

Pseudomonas acruginosa = assay: as above; assay type: cell-based
Method: as §1, §2, §3

Salmonella = assay: as above; assay type: cell-based
Method: as §1, §2, §3

Staphylococcus aureus = assay: as above; assay type: cell-based; conditions: Mueller Hinton Agar pH 7.4
Method: as §1, §2, §3

Streptococcus pyogenes = assay: as above; assay type: cell-based
Method: as §1, §2, §3

Bacteroides corrodens = assay: In vitro activity against anaerobes in fluid Thioglycollate medium (Table II); assay type: cell-based; conditions: Eikenella corrodens
Method: as §1
(§4) In vitro activity of 2-aminoalkyl-3-phenylindoles of the formula I
(§5) against anaerobes in fluid Thioglycollate medium

Bacteroides fragilis = assay: as above; assay type: cell-based
Method: as §1, §4, §5

Clostridium novyi = assay: as above; assay type: cell-based
Method: as §1, §4, §5

Eubacterium lentum = assay: as above; assay type: cell-based; conditions: Eggerthella lenta
Method: as §1, §4, §5

Peptostreptococcus = assay: as above; assay type: cell-based
Method: as §1, §4, §5

Aspergillus niger 6275 = assay: In vitro antifungal activity, dilutions in Sabouraud's Dextrose Broth (Table IV); assay type: cell-based; conditions: after 96 hours
Method: as §1
(§6) In vitro Antifungal Activity of 2-amioalkyl-3-phenylindoles
(§7) of the formula I against Dermetophytes and Aspergillus.
(§8) Dilutions in Sabouraud's Dextrose Broth.

Aspergillus sp. No. 3 = assay: as above; assay type: cell-based; conditions: after 96 hours
Method: as §1, §6, §7, §8

Epidermophyton floccosum = assay: as above; assay type: cell-based; conditions: after 96 hours
Method: as §1, §6, §7, §8

Microsporum distortum = assay: as above; assay type: cell-based; conditions: after 96 hours
Method: as §1, §6, §7, §8

Microsporum nanum = assay: as above; assay type: cell-based; conditions: Nannizzia nana; after 96 hours
Method: as §1, §6, §7, §8

Trichophyton ascoides = assay: as above; assay type: cell-based; conditions: after 96 hours
Method: as §1, §6, §7, §8

Trichophyton discoides = assay: as above; assay type: cell-based; conditions: after 96 hours
Method: as §1, §6, §7, §8

Trichophyton ferrugineum = assay: as above; assay type: cell-based; conditions: Microsporum ferrugineum; after 96 hours
Method: as §1, §6, §7, §8

Trichophyton gallinae = assay: as above; assay type: cell-based; conditions: after 96 hours
Method: as §1, §6, §7, §8

Trichophyton megninii = assay: as above; assay type: cell-based; conditions: Trichophyton rubrum; after 96 hours
Method: as §1, §6, §7, §8

[1] = test system: Trichophyton mentagrophytes; assay: as above; assay type: cell-based; conditions: 96 h
Method: as §1, §6, §7, §8

Trichophyton rubrum = assay: as above; assay type: cell-based; conditions: 96 h
Method: as §1, §6, §7, §8

[2] = test system: Trichophyton schoenleinii; assay: as above; assay type: cell-based; conditions: 96 h
Method: as §1, §6, §7, §8

Trichophyton soudenense = assay: as above; assay type: cell-based; conditions: after 96 hours
Method: as §1, §6, §7, §8

Trichophyton tonsurans = assay: as above; assay type: cell-based; conditions: after 96 hours
Method: as §1, §6, §7, §8

Tricoderm sp. = assay: as above; assay type: cell-based; conditions: after 96 hours
Method: as §1, §6, §7, §8

[3] = Acute toxicity in mice (Table V); conditions: mouse, in vivo
Method: as §1
Acute Toxicity of 2-aminoalkyl-3-phenylindoles of the formula I

Trychomonas vaginalis = assay: In vitro Anti-Trichomonal activity (Table VII); assay type: cell-based; conditions: for IC50: 50% suppression, read-out: Minimal Level to Produce 50% Suppression; for IC90: 90% suppression, read-out: Minimal Level to Produce 90% Suppression
Method: as §1
In vitro Anti-Trichomonal Activity of some 2-aminoalkyl-3-
phenyl-indenes of formula II.

[4] = pH 7.4, strain 373, Mueller Hinton Agar pH 7.4
[5] = pH 7.4, strain 0928/72, Mueller Hinton Agar pH 7.4
[6] = pH 7.4, strain 777, Mueller Hinton Agar pH 7.4
[7] = pH 7.4, strain 1574-1, Mueller Hinton Agar pH 7.4
[8] = pH 7.4, strain 4195, Mueller Hinton Agar pH 7.4
[9] = pH 7.4, strain 10536, Mueller Hinton Agar pH 7.4
[10] = pH 7.4, strain JR66, Mueller Hinton Agar pH 7.4
[11] = pH 7.4, strain 121, Mueller Hinton Agar pH 7.4
[12] = pH 7.4, strain 3020, Mueller Hinton Agar pH 7.4
[13] = pH 7.4, strain AD17, Mueller Hinton Agar pH 7.4
[14] = pH 7.4, strain AD22, Mueller Hinton Agar pH 7.4
[15] = pH 7.4, strain G3694, Mueller Hinton Agar pH 7.4
[16] = pH 7.4, strain 130, Mueller Hinton Agar pH 7.4
[17] = pH 7.4, strain 138, Mueller Hinton Agar pH 7.4
[18] = pH 7.4, strain 762, Mueller Hinton Agar pH 7.4
[19] = pH 7.4, strain 8709, Mueller Hinton Agar pH 7.4
[20] = pH 7.4, strain Trav. 1, Mueller Hinton Agar pH 7.4
[21] = TYPHI, pH 7.4, B typhi, Mueller Hinton Agar pH 7.4
[22] = pH 7.4, C1 Oao, Mueller Hinton Agar pH 7.4
[23] = pH 7.4, C2 Cuban, Mueller Hinton Agar pH 7.4
[24] = pH 7.4, C2 Napc, Mueller Hinton Agar pH 7.4
[25] = pH 7.4, Salmonella ent. 1, Mueller Hinton Agar pH 7.4
[26] = pH 7.4, strain 27, Mueller Hinton Agar pH 7.4
[27] = pH 7.4, strain C, Mueller Hinton Agar pH 7.4
[28] = pH 7.4, strain Cruz, Mueller Hinton Agar pH 7.4
[29] = strain Haggerty, after 96 hours
[30] = strain not given, after 96 hours

NCc1[nH]c2cc(Br)c(Cl)cc2c1-c1ccccc1 [D, 2-aminomethyl-6-bromo-5-chloro-3-phenylindole]
20 µg/mL: IC50 (Trychomonas vaginalis)
75 µg/mL: MIC (Trichophyton gallinae)
175 mg/kg: LD50 ([3]; ip, I.P.)
0.75 µg/mL: MIC (Bacteroides corrodens; 48 hrs) | MIC (Bacteroides corrodens; 72 hrs) | MIC (Bacteroides fragilis; 48 hrs) | MIC (Bacteroides fragilis; 72 hrs) | MIC (Clostridium novyi; 48 hrs) | MIC (Clostridium novyi; 72 hrs) | MIC (Eubacterium lentum; 48 hrs) | MIC (Eubacterium lentum; 72 hrs)
~950 mg/kg: LD50 ([3]; Oral)
7.5 µg/mL: MIC (Proteus rettgeri) | MIC (Pseudomonas acruginosa; [17]) | MIC (Pseudomonas acruginosa; [19]) | MIC (Pseudomonas acruginosa; [20]) | MIC (Epidermophyton floccosum) | MIC (Trichophyton ascoides) | MIC (Trichophyton discoides) | MIC ([1]; strain A, after 96 hours) | MIC ([1]; strain H377, after 96 hours) | MIC ([1]; strain Young, after 96 hours) | MIC (Trichophyton rubrum; strain Blehl, after 96 hours) | MIC (Trichophyton rubrum; [29]) | MIC ([2]; strain 2, after 96 hours) | MIC [2, 30] | MIC (Tricoderm sp.)
17.5 µg/mL: MIC (Pseudomonas acruginosa; [16]) | MIC (Pseudomonas acruginosa; [18]) | MIC (Aspergillus niger 6275) | MIC (Aspergillus sp. No. 3) | MIC (Trichophyton ferrugineum) | MIC (Trichophyton tonsurans)
0.3 µg/mL: MIC (Peptostreptococcus; 48 hrs) | MIC (Peptostreptococcus; 72 hrs)
38 µg/mL: IC90 (Trychomonas vaginalis)
750 mg/kg: LD50 ([3]; sc, S.C.)
3 µg/mL: MIC (Enterococcus; [4]) | MIC (Enterococcus; [5]) | MIC (Escherichia coli; [6]) | MIC (Escherichia coli; [7]) | MIC (Escherichia coli; [8]) | MIC (Escherichia coli; [9]) | MIC (Escherichia coli; [10]) | MIC (Klebsiella; [11]) | MIC (Klebsiella; [12]) | MIC (Klebsiella; [13]) | MIC (Klebsiella; [14]) | MIC (Klebsiella; [15]) | MIC (Proteus mirabilis; pH 7.4, strain Hard) | MIC (Proteus mirabilis; pH 7.4, strain Peras) | MIC (Proteus morganii) | MIC (Proteus vulgaris) | MIC (Salmonella; [21]) | MIC (Salmonella; [22]) | MIC (Salmonella; [23]) | MIC (Salmonella; [24]) | MIC (Salmonella; [25]) | MIC (Staphylococcus aureus; 209P, pH 7.4, strain 209P) | MIC (Staphylococcus aureus; pH 7.4, strain 59N) | MIC (Staphylococcus aureus; pH 7.4, strain Gray) | MIC (Staphylococcus aureus; pH 7.4, strain Wood) | MIC (Staphylococcus aureus; pH 7.4, strain Zeigler) | MIC (Streptococcus pyogenes; [26]) | MIC (Streptococcus pyogenes; [27]) | MIC (Streptococcus pyogenes; [28]) | MIC (Microsporum distortum) | MIC (Microsporum nanum) | MIC (Trichophyton megninii) | MIC ([1]; strain B, after 96 hours) | MIC ([1]; strain C, after 96 hours) | MIC (Trichophyton rubrum; strain 3, after 96 hours) | MIC (Trichophyton rubrum; strain 360, after 96 hours) | MIC (Trichophyton soudenense)

NCc1[nH]c2ccc(Cl)cc2c1-c1ccc(Cl)cc1Cl [E]
17.5 µg/mL: MIC (Proteus mirabilis; pH 7.4, strain Peras) | MIC (Proteus morganii) | MIC (Proteus rettgeri) | MIC (Pseudomonas acruginosa; [17]) | MIC (Pseudomonas acruginosa; [18]) | MIC (Pseudomonas acruginosa; [20]) | MIC (Aspergillus niger 6275) | MIC (Aspergillus sp. No. 3) | MIC (Trichophyton gallinae) | MIC ([1]; strain B, after 96 hours) | MIC ([1]; strain C, after 96 hours)
~700 mg/kg: LD50 ([3]; Oral)
85 mg/kg: LD50 ([3]; ip, I.P.)
0.8 µg/mL: MIC (Staphylococcus aureus; pH 7.4, strain Zeigler) | MIC (Streptococcus pyogenes; [28])
3 µg/mL: MIC (Enterococcus; [4]) | MIC (Enterococcus; [5]) | MIC (Escherichia coli; [6]) | MIC (Escherichia coli; [7]) | MIC (Escherichia coli; [8]) | MIC (Escherichia coli; [9]) | MIC (Escherichia coli; [10]) | MIC (Klebsiella; [12]) | MIC (Klebsiella; [14]) | MIC (Klebsiella; [15]) | MIC (Proteus mirabilis; pH 7.4, strain Hard) | MIC (Proteus vulgaris) | MIC (Salmonella; [21]) | MIC (Salmonella; [22]) | MIC (Salmonella; [23]) | MIC (Salmonella; [24]) | MIC (Salmonella; [25]) | MIC (Staphylococcus aureus; 209P, pH 7.4, strain 209P) | MIC (Staphylococcus aureus; pH 7.4, strain 59N) | MIC (Staphylococcus aureus; pH 7.4, strain Gray) | MIC (Staphylococcus aureus; pH 7.4, strain Wood) | MIC (Streptococcus pyogenes; [26]) | MIC (Streptococcus pyogenes; [27]) | MIC (Bacteroides corrodens; 72 hrs) | MIC (Eubacterium lentum; 48 hrs) | MIC (Eubacterium lentum; 72 hrs) | MIC (Epidermophyton floccosum) | MIC (Microsporum distortum) | MIC (Microsporum nanum) | MIC (Trichophyton megninii) | MIC ([1]; strain A, after 96 hours) | MIC ([1]; strain Young, after 96 hours) | MIC (Trichophyton rubrum; strain 3, after 96 hours) | MIC (Trichophyton rubrum; strain 360, after 96 hours) | MIC (Trichophyton rubrum; strain Blehl, after 96 hours) | MIC (Trichophyton rubrum; [29]) | MIC ([2]; strain 2, after 96 hours) | MIC [2, 30] | MIC (Tricoderm sp.)
540 mg/kg: LD50 ([3]; sc, S.C.)
7.5 µg/mL: MIC (Klebsiella; [11]) | MIC (Klebsiella; [13]) | MIC (Pseudomonas acruginosa; [16]) | MIC (Pseudomonas acruginosa; [19]) | MIC (Trichophyton ascoides) | MIC (Trichophyton discoides) | MIC (Trichophyton ferrugineum) | MIC ([1]; strain H377, after 96 hours) | MIC (Trichophyton soudenense) | MIC (Trichophyton tonsurans)
14 µg/mL: IC50 (Trychomonas vaginalis)
28 µg/mL: IC90 (Trychomonas vaginalis)
0.75 µg/mL: MIC (Bacteroides corrodens; 48 hrs) | MIC (Bacteroides fragilis; 48 hrs) | MIC (Bacteroides fragilis; 72 hrs) | MIC (Clostridium novyi; 48 hrs) | MIC (Clostridium novyi; 72 hrs) | MIC (Peptostreptococcus; 48 hrs) | MIC (Peptostreptococcus; 72 hrs)
